Results as given in ChEMBL document CHEMBL1201862, “PubChem BioAssay data set” (2004).
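48-hour exposure; five concentrations; linearly interpolated endpoints. GI50 marks 50% less growth.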 Active and inactive are the calls of the source. No stated cut-off is given here; in the data, active = GI50 up to about 1.1 µM and inactive = higher.

How the values were obtained:
Assay in all cases: inhibition of tumour cell growth, NCI panel, 48 h
[1] = tested on: HT-29
[2] = tested on: SK-MEL-28
[3] = tested on: KM12
[4] = tested on: HCC 2998
[5] = tested on: UACC-62
[6] = tested on: DU-145
[7] = tested on: EKVX
[8] = tested on: U-251
[9] = tested on: SN12C
[10] = tested on: RXF 393
[11] = tested on: SF-539
[12] = tested on: OVCAR-4
[13] = tested on: HOP-92
[14] = tested on: RPMI-8226
[15] = tested on: IGROV-1
[16] = tested on: M14
[17] = tested on: MDA-MB-231
[18] = tested on: NCI-H23
[19] = tested on: 786-0
[20] = tested on: NCI-H522

`Oc1ccnc(SCc2ccc(Cl)cc2)n1` was tested, and the GI50 [1] was > 100 µM (inactive), the GI50 [2] was > 100 µM (inactive) and the GI50 [3] was > 100 µM (inactive). The GI50 [4] was 13.4 µM (inactive), the GI50 [5] was > 100 µM (inactive) and the GI50 [6] was > 100 µM (inactive). For the same compound, the GI50 [7] was > 100 µM (inactive), the GI50 [8] was > 100 µM (inactive) and the GI50 [9] was > 100 µM (inactive). For the same compound, the GI50 [10] was > 100 µM (inactive), the GI50 [11] was > 100 µM (inactive) and the GI50 [12] was > 100 µM (inactive). The GI50 [13] was > 100 µM (inactive), the GI50 [14] was 56.1 µM (inactive) and the GI50 [15] was > 100 µM (inactive). The GI50 [16] was > 100 µM (inactive), the GI50 [17] was > 100 µM (inactive) and the GI50 [18] was > 100 µM (inactive). For the same compound, the GI50 [19] was > 100 µM (inactive) and the GI50 [20] was 62.2 µM (inactive).
`O=C1C=C(OCCCl)C(=O)c2c(O)ccc(O)c21` was tested, and the GI50 [1] was 0.378 µM (active), the GI50 [2] was 0.172 µM (active) and the GI50 [3] was 2.07 µM (inactive). For the same compound, the GI50 [4] was 1.63 µM (inactive), the GI50 [5] was 0.228 µM (active) and the GI50 [6] was 0.29 µM (active). For the same compound, the GI50 [7] was 1.91 µM (inactive), the GI50 [8] was 1.84 µM (inactive) and the GI50 [9] was 0.225 µM (active). The GI50 [10] was 1.92 µM (inactive), the GI50 [11] was 1.36 µM (inactive) and the GI50 [12] was 1.64 µM (inactive). For the same compound, the GI50 [13] was 2.15 µM (inactive), the GI50 [14] was 2.08 µM (inactive) and the GI50 [15] was 1.81 µM (inactive). The GI50 [16] was 0.177 µM (active), the GI50 [17] was 1.78 µM (inactive) and the GI50 [18] was 0.242 µM (active). The GI50 [19] was 1.62 µM (inactive) and the GI50 [20] was 2.32 µM (inactive).
With `Cc1ccc(-c2[nH]c(=O)n(C3OC(CO)C(O)C(O)C3O)c(=O)c2C#N)cc1` (stereo not given) the GI50 [1] was > 100 µM (inactive), the GI50 [2] was > 100 µM (inactive) and the GI50 [3] was > 100 µM (inactive). For the same compound, the GI50 [4] was > 100 µM (inactive), the GI50 [5] was > 100 µM (inactive) and the GI50 [6] was > 100 µM (inactive). For the same compound, the GI50 [7] was > 100 µM (inactive), the GI50 [8] was > 100 µM (inactive) and the GI50 [9] was > 100 µM (inactive). For the same compound, the GI50 [10] was > 100 µM (inactive), the GI50 [11] was > 100 µM (inactive) and the GI50 [12] was > 100 µM (inactive). The GI50 [13] was > 100 µM (inactive), the GI50 [14] was > 100 µM (inactive) and the GI50 [15] was > 100 µM (inactive). For the same compound, the GI50 [16] was > 100 µM (inactive), the GI50 [17] was > 100 µM (inactive) and the GI50 [18] was > 100 µM (inactive). The GI50 [19] was > 100 µM (inactive) and the GI50 [20] was > 100 µM (inactive).
With `O=C(c1ccsc1)c1cc2c(s1)C(=O)c1ccsc1C2=O` the GI50 [1] was 0.676 µM (active), the GI50 [2] was 0.142 µM (active) and the GI50 [3] was 0.191 µM (active). For the same compound, the GI50 [4] was 0.537 µM (active), the GI50 [5] was 0.194 µM (active) and the GI50 [6] was 0.159 µM (active). The GI50 [7] was 0.2 µM (active), the GI50 [8] was 0.159 µM (active) and the GI50 [9] was 0.0635 µM (active). For the same compound, the GI50 [10] was 0.178 µM (active), the GI50 [11] was 0.0671 µM (active) and the GI50 [12] was 0.177 µM (active). For the same compound, the GI50 [13] was 0.34 µM (active), the GI50 [14] was 0.136 µM (active) and the GI50 [15] was 0.204 µM (active). For the same compound, the GI50 [16] was 0.116 µM (active), the GI50 [17] was 0.0755 µM (active) and the GI50 [18] was 0.137 µM (active). For the same compound, the GI50 [19] was 0.189 µM (active) and the GI50 [20] was 0.137 µM (active).
`CC(C)(C)OC(=O)N/C=C1\C(=O)Oc2ccccc2C1=O` was tested, and the GI50 [1] was > 100 µM (inactive), the GI50 [2] was 45.1 µM (inactive) and the GI50 [3] was 37.9 µM (inactive). The GI50 [4] was 54 µM (inactive), the GI50 [5] was 38.4 µM (inactive) and the GI50 [6] was 8.67 µM (inactive). For the same compound, the GI50 [7] was 47.6 µM (inactive), the GI50 [8] was 19.8 µM (inactive) and the GI50 [9] was 24.5 µM (inactive). The GI50 [10] was 23.2 µM (inactive), the GI50 [11] was 14.7 µM (inactive) and the GI50 [12] was 33 µM (inactive). The GI50 [13] was 45.3 µM (inactive), the GI50 [14] was > 100 µM (inactive) and the GI50 [15] was 42.5 µM (inactive). The GI50 [16] was 35.6 µM (inactive), the GI50 [17] was 21.8 µM (inactive) and the GI50 [18] was 42.4 µM (inactive). The GI50 [19] was 34.6 µM (inactive) and the GI50 [20] was < 0.01 µM (active).
`O=C1/C(=C/C=C/c2ccccc2)CCC1CNc1ccccc1` (stereo not given) was tested, and the GI50 [1] was 24.7 µM (inactive), the GI50 [2] was 44.6 µM (inactive) and the GI50 [3] was 14.9 µM (inactive). The GI50 [4] was > 68.5 µM (inactive), the GI50 [5] was 50.4 µM (inactive) and the GI50 [6] was > 93.3 µM (inactive). For the same compound, the GI50 [7] was > 100 µM (inactive), the GI50 [8] was > 59.3 µM (inactive) and the GI50 [9] was 23.2 µM (inactive). For the same compound, the GI50 [10] was 19.8 µM (inactive), the GI50 [11] was > 54.5 µM (inactive) and the GI50 [12] was 99.3 µM (inactive). For the same compound, the GI50 [13] was 47.8 µM (inactive), the GI50 [14] was 1.59 µM (inactive) and the GI50 [15] was 23.4 µM (inactive). The GI50 [16] was 30.2 µM (inactive), the GI50 [17] was 22 µM (inactive) and the GI50 [18] was 27.7 µM (inactive). For the same compound, the GI50 [19] was 16.6 µM (inactive) and the GI50 [20] was 9.62 µM (inactive).
In the case of `O=c1oc2ccc([N+](=O)[O-])cc2c(Nc2ccc3c(c2)S(=O)(=O)c2ccccc2O3)c1[N+](=O)[O-]`, the GI50 [1] is reported as 65.9 µM (inactive), the GI50 [2] is reported as 46.3 µM (inactive) and the GI50 [3] is reported as > 100 µM (inactive). The GI50 [4] was 26.5 µM (inactive), the GI50 [5] was 43.8 µM (inactive) and the GI50 [6] was > 100 µM (inactive). The GI50 [7] was > 100 µM (inactive), the GI50 [8] was 57.3 µM (inactive) and the GI50 [9] was 80.2 µM (inactive). For the same compound, the GI50 [10] was 45.4 µM (inactive), the GI50 [11] was 46.8 µM (inactive) and the GI50 [12] was > 100 µM (inactive). For the same compound, the GI50 [13] was 51.2 µM (inactive), the GI50 [14] was 39 µM (inactive) and the GI50 [15] was > 100 µM (inactive). For the same compound, the GI50 [16] was 42.9 µM (inactive), the GI50 [17] was 49.7 µM (inactive) and the GI50 [18] was > 100 µM (inactive). For the same compound, the GI50 [19] was > 100 µM (inactive) and the GI50 [20] was 87.1 µM (inactive).
